This note sets out measurements from patent publication US10927123B2, “Modulators of the beta-3 adrenergic receptor useful for the treatment or prevention of disorders related thereto” (Arena Pharmaceuticals, Inc., priority 2016, dated 2021).

The target in the assay is Beta-3 Adrenergic Receptor (Homo sapiens (Human), UniProt P13945). In words: HTRF cAMP antagonist assay (IC50 determination). The assay is classed as cell-based. As to conditions: CHO-K1 cells stably expressing recombinant receptor; antagonism of isoproterenol at EC90; cAMP readout. As to the method:
HTRF cAMP assays were performed according to manufacturer's instructions (Cisbio, cAMP Dynamic 2 Assay Kit; #62AM4PEJ). CHO-K1 cells stably expressing recombinant receptor were harvested and suspended in warm PBS to make a 300,000 cells/mL stock. This cell suspension was dispensed into 384 well assay plates (PerkinElmer ProxiPlate #6008280) at 5 μL per well (1500 cells/well) along with a cAMP standard curve.
Compounds were dissolved and serially diluted (5-fold) in DMSO to generate a 10-point dose response stock. The stock was then diluted 100-fold in assay buffer (PBS containing 1 mM IBMX) before a volume of 2.5 μL was added to the cells (the final, top concentration of compound in the dose-response is typically 10 or 100 μM). After a brief incubation, 2.5 μL of isoproterenol stock, prepared at a concentration 4 times its EC90 at the receptor of interest, was added to the wells. The EC90 for isoproterenol, a beta-adrenergic agonist, was determined in separate experiments using standard methods to measure agonist potencies.
Following a 1-hour incubation at room temperature, 5 μL of cAMP-D2 Reagent diluted in Lysis Buffer was added to each well followed by 5 μL of Cryptate Reagent. Plates were further incubated at room temperature for 1 hour prior to reading. Time resolved fluorescence measurements were collected on a suitable, HTRF-capable plate reader.
Counts from the plate reader were fit to the cAMP standard curve on the assay plate in order to determine cAMP concentrations in each well, and these values were used to construct dose-response curves to obtain IC50 values.
(In general: In TR-FRET formats the signal depends on donor and acceptor labels being close together.)

The term IC50 denotes the concentration that gives 50% inhibition.

Chain of Beta-3 Adrenergic Receptor (P13945 whole entry, species assumed): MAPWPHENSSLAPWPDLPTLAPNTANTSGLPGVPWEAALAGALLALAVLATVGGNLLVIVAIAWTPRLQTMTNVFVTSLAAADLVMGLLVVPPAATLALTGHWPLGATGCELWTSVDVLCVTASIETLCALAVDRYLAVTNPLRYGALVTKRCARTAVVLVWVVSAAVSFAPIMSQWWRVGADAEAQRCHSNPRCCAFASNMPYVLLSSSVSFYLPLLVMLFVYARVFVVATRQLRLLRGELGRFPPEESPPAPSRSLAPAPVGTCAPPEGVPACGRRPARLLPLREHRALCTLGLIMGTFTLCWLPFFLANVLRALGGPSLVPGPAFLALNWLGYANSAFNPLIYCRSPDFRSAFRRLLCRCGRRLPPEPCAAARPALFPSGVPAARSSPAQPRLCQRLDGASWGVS

For `CS(=O)(=O)c1cccc(OC[C@@H](O)CNC2COC3(CCN(S(=O)(=O)c4ccc(-c5ccccc5)s4)CC3)C2)c1` (stereo partly drawn) [Compound 51, (2S)-1-(3-(methylsulfonyl)phenoxy)-3-(8-(5-phenylthiophen-2-ylsulfonyl)-1-oxa-8-azaspiro[4.5]decan-3-ylamino)propan-2-ol], the IC50 came out at 0.0174 µM. With `Cc1noc(C)c1S(=O)(=O)N1CCC2(CC1)CC(NC[C@H](O)COc1cccc(S(C)(=O)=O)c1)CO2` (stereo partly drawn) [Compound 52, (2S)-1-(8-(3,5-dimethylisoxazol-4-ylsulfonyl)-1-oxa-8-azaspiro[4.5]decan-3-ylamino)-3-(3-(methylsulfonyl)phenoxy)propan-2-ol] the figure was 0.0612 µM; with `CS(=O)(=O)c1cccc(OC[C@@H](O)CNC2COC3(CCN(S(=O)(=O)c4ccc5c(c4)NC(=O)CO5)CC3)C2)c1` (stereo partly drawn) [Compound 53, 6-(3-((S)-2-hydroxy-3-(3-(methylsulfonyl)phenoxy)propylamino)-1-oxa-8-azaspiro[4.5]decan-8-ylsulfonyl)-2H-benzo[b][1,4]oxazin-3(4H)-one], 0.0239 µM. With `CS(=O)(=O)c1cccc(OC[C@@H](O)CNC2COC3(CCN(S(=O)(=O)c4cccc(F)c4)CC3)C2)c1` (stereo partly drawn) [Compound 54, (2S)-1-(8-(3-fluorophenylsulfonyl)-1-oxa-8-azaspiro[4.5]decan-3-ylamino)-3-(3-(methylsulfonyl)phenoxy)propan-2-ol] the figure was 0.0459 µM; with `CS(=O)(=O)c1cccc(OC[C@@H](O)CNC2COC3(CCN(S(=O)(=O)c4cccc(C#N)c4)CC3)C2)c1` (stereo partly drawn) [Compound 55, 3-(3-((S)-2-hydroxy-3-(3-(methylsulfonyl)phenoxy)propylamino)-1-oxa-8-azaspiro[4.5]decan-8-ylsulfonyl)benzonitrile], 0.0305 µM.

Turning to `CS(=O)(=O)c1cccc(OC[C@@H](O)CNC2COC3(CCN(C(=O)Cc4csc(N)n4)CC3)C2)c1` (stereo partly drawn) [Compound 56, 2-(2-aminothiazol-4-yl)-1-(3-((S)-2-hydroxy-3-(3-(methylsulfonyl)phenoxy)propylamino)-1-oxa-8-azaspiro[4.5]decan-8-yl)ethanone], the IC50 is 1.99 µM.

On to `CS(=O)(=O)c1cccc(OC[C@@H](O)CNC2COC3(CCN(C(=O)c4ccc5ccccc5c4)CC3)C2)c1` (stereo partly drawn) [Compound 57, (3-((S)-2-hydroxy-3-(3-(methylsulfonyl)phenoxy)propylamino)-1-oxa-8-azaspiro[4.5]decan-8-yl)(naphthalen-2-yl)methanone], for which the half-maximal inhibitory concentration (IC50) worked out at 0.487 µM. With `CCn1ncc(S(=O)(=O)N2CCC3(CC2)CC(NC[C@H](O)COc2cccc(S(C)(=O)=O)c2)CO3)c1C` (stereo partly drawn) [Compound 58, (2S)-1-(8-(1-ethyl-5-methyl-1H-pyrazol-4-ylsulfonyl)-1-oxa-8-azaspiro[4.5]decan-3-ylamino)-3-(3-(methylsulfonyl)phenoxy)propan-2-ol] the figure was 0.109 µM; with `CS(=O)(=O)c1cccc(OC[C@@H](O)CNC2COC3(CCN(S(=O)(=O)c4ccc5c(Cl)cccc5c4)CC3)C2)c1` (stereo partly drawn) [Compound 59, (2S)-1-(8-(5-chloronaphthalen-2-ylsulfonyl)-1-oxa-8-azaspiro[4.5]decan-3-ylamino)-3-(3-(methylsulfonyl)phenoxy)propan-2-ol], 0.0123 µM; with `CS(=O)(=O)c1cccc(OC[C@@H](O)CNC2COC3(CCN(S(=O)(=O)c4cc5ccccc5o4)CC3)C2)c1` (stereo partly drawn) [Compound 60, (2S)-1-(8-(benzofuran-2-ylsulfonyl)-1-oxa-8-azaspiro[4.5]decan-3-ylamino)-3-(3-(methylsulfonyl)phenoxy)propan-2-ol], 0.0174 µM. With `CS(=O)(=O)c1cccc(OC[C@@H](O)CNC2COC3(CCN(S(=O)(=O)c4ccc5occc5c4)CC3)C2)c1` (stereo partly drawn) [Compound 61, (2S)-1-(8-(benzofuran-5-ylsulfonyl)-1-oxa-8-azaspiro[4.5]decan-3-ylamino)-3-(3-(methylsulfonyl)phenoxy)propan-2-ol] the figure was 0.0298 µM; with `CS(=O)(=O)c1cccc(OC[C@@H](O)CNC2COC3(CCN(S(=O)(=O)c4ccc5[nH]ccc5c4)CC3)C2)c1` (stereo partly drawn) [Compound 62, (2S)-1-(8-(1H-indol-5-ylsulfonyl)-1-oxa-8-azaspiro[4.5]decan-3-ylamino)-3-(3-(methylsulfonyl)phenoxy)propan-2-ol], 0.0245 µM.

With `CS(=O)(=O)c1cccc(OC[C@@H](O)CNC2COC3(CCN(S(=O)(=O)c4cccc(-c5cccnc5)c4)CC3)C2)c1` (stereo partly drawn) [Compound 63, (2S)-1-(3-(methylsulfonyl)phenoxy)-3-(8-(3-(pyridin-3-yl)phenylsulfonyl)-1-oxa-8-azaspiro[4.5]decan-3-ylamino)propan-2-ol], the IC50 came to 0.0172 µM. As for `CN1CCOc2cc(C(=O)N3CCC4(CC3)CC(NC[C@H](O)COc3cccc(S(C)(=O)=O)c3)CO4)ccc21` (stereo partly drawn) [Compound 64, (3-((S)-2-hydroxy-3-(3-(methylsulfonyl)phenoxy)propylamino)-1-oxa-8-azaspiro[4.5]decan-8-yl)(4-methyl-3,4-dihydro-2H-benzo[6][1,4]oxazin-7-yl)methanone], the IC50 came to 0.922 µM. To `CS(=O)(=O)c1cccc(OC[C@@H](O)CNC2COC3(CCN(C(=O)c4cc5ccccc5[nH]4)CC3)C2)c1` (stereo partly drawn) [Compound 65, (3-((S)-2-hydroxy-3-(3-(methylsulfonyl)phenoxy)propylamino)-1-oxa-8-azaspiro[4.5]decan-8-yl)(1H-indol-2-yl)methanone] belongs 0.711 µM.

For `CS(=O)(=O)c1cccc(OC[C@@H](O)CNC2COC3(CCN(C(=O)c4c[nH]c5ccccc45)CC3)C2)c1` (stereo partly drawn) [Compound 66, (3-((S)-2-hydroxy-3-(3-(methylsulfonyl)phenoxy)propylamino)-1-oxa-8-azaspiro[4.5]decan-8-yl)(1H-indol-3-yl)methanone], the IC50 was 0.982 µM.

Consider `CS(=O)(=O)c1cccc(OC[C@@H](O)CNC2COC3(CCN(C(=O)c4ccc5[nH]ccc5c4)CC3)C2)c1` (stereo partly drawn) [Compound 67, (3-((S)-2-hydroxy-3-(3-(methylsulfonyl)phenoxy)propylamino)-1-oxa-8-azaspiro[4.5]decan-8-yl)(1H-indol-5-yl)methanone], for which the half-inhibitory concentration (IC50) came to 0.822 µM. With `CS(=O)(=O)c1cccc(OC[C@@H](O)CNC2COC3(CCN(C(=O)c4ccc5cc[nH]c5c4)CC3)C2)c1` (stereo partly drawn) [Compound 68, (3-((S)-2-hydroxy-3-(3-(methylsulfonyl)phenoxy)propylamino)-1-oxa-8-azaspiro[4.5]decan-8-yl)(1H-indol-6-yl)methanone], the IC50 stood at 0.494 µM. Turning to `CS(=O)(=O)c1cccc(OC[C@@H](O)CNC2COC3(CCN(S(=O)(=O)c4cccc(Br)c4)CC3)C2)c1` (stereo partly drawn) [Compound 69, (2S)-1-(8-(3-bromophenylsulfonyl)-1-oxa-8-azaspiro[4.5]decan-3-ylamino)-3-(3-(methylsulfonyl)phenoxy)propan-2-ol], the IC50 is 0.0213 µM. With `CS(=O)(=O)c1cccc(OC[C@@H](O)CNC2COC3(CCN(S(=O)(=O)c4cccc(-c5ccc(N)nc5)c4)CC3)C2)c1` (stereo partly drawn) [Compound 70, (2S)-1-(8-(3-(6-aminopyridin-3-yl)phenylsulfonyl)-1-oxa-8-azaspiro[4.5]decan-3-ylamino)-3-(3-(methylsulfonyl)phenoxy)propan-2-ol] the figure was 0.0244 µM; with `CS(=O)(=O)c1cccc(OC[C@@H](O)CNC2COC3(CCN(S(=O)(=O)c4cccc(-c5cncnc5)c4)CC3)C2)c1` (stereo partly drawn) [Compound 71, (2S)-1-(3-(methylsulfonyl)phenoxy)-3-(8-(3-(pyrimidin-5-yl)phenylsulfonyl)-1-oxa-8-azaspiro[4.5]decan-3-ylamino)propan-2-ol], 0.039 µM; with `CS(=O)(=O)c1cccc(OC[C@@H](O)CNC2COC3(CCN(S(=O)(=O)c4ccccn4)CC3)C2)c1` (stereo partly drawn) [Compound 72, (2S)-1-(3-(methylsulfonyl)phenoxy)-3-(8-(pyridin-2-ylsulfonyl)-1-oxa-8-azaspiro[4.5]decan-3-ylamino)propan-2-ol], 0.329 µM.

As to `CS(=O)(=O)c1cccc(OC[C@@H](O)CNC2COC3(CCN(S(=O)(=O)c4ccc5cc(Cl)ccc5c4)CC3)C2)c1` (stereo partly drawn) [Compound 73, (2S)-1-(8-(6-chloronaphthalen-2-ylsulfonyl)-1-oxa-8-azaspiro[4.5]decan-3-ylamino)-3-(3-(methylsulfonyl)phenoxy)propan-2-ol], the IC50 is 0.0239 µM.

Take `CS(=O)(=O)c1cccc(OC[C@@H](O)CNC2COC3(CCN(S(=O)(=O)c4ccc5c(c4)CCO5)CC3)C2)c1` (stereo partly drawn) [Compound 74, (2S)-1-(8-(2,3-dihydrobenzofuran-5-ylsulfonyl)-1-oxa-8-azaspiro[4.5]decan-3-ylamino)-3-(3-(methylsulfonyl)phenoxy)propan-2-ol]: the IC50 is 0.038 µM. `CS(=O)(=O)c1cccc(OC[C@@H](O)CNC2COC3(CCN(S(=O)(=O)c4ccc5ncccc5c4)CC3)C2)c1` (stereo partly drawn) [Compound 75, (2S)-1-(3-(methylsulfonyl)phenoxy)-3-(8-(quinolin-6-ylsulfonyl)-1-oxa-8-azaspiro[4.5]decan-3-ylamino)propan-2-ol]: the 50% inhibitory concentration (IC50) came to 0.0267 µM. For the molecule `CS(=O)(=O)c1cccc(OC[C@@H](O)CNC2COC3(CCN(S(=O)(=O)c4ccc5[nH]cnc5c4)CC3)C2)c1` (stereo partly drawn) [Compound 76, (2S)-1-(8-(1H-benzo[d]imidazol-5-ylsulfonyl)-1-oxa-8-azaspiro[4.5]decan-3-ylamino)-3-(3-(methylsulfonyl)phenoxy)propan-2-ol], the IC50 is 0.0359 µM.
